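Compound exposure: 48 hours, 5 concentrations, 96-well plates. GI50 is the concentration that inhibits growth by half. TGI: total growth inhibition.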 Where a SMILES comes first, the peptide text is derived from it. The star is where a group is joined. Boc = CC(C)(C)OC(=O)*; nBu = CCCC*
Assays:
Experiment in all cases: inhibition of tumour cell growth, NCI panel, 48 h
MDA-MB-231 breast = test system: MDA-MB-231 breast
MDA-N = test system: MDA-N
SNB-19 CNS = test system: SNB-19 CNS
HS 578T breast = test system: HS 578T breast
HOP-92 NSCLC = test system: HOP-92 NSCLC
A498 renal = test system: A498 renal
BT-549 breast = test system: BT-549 breast
SNB-75 CNS = test system: SNB-75 CNS
RXF 393 renal = test system: RXF 393 renal
HOP-62 NSCLC = test system: HOP-62 NSCLC
DU-145 prostate = test system: DU-145 prostate

Structure (SMILES)	TGI (MDA-MB-231 breast) [µM]	TGI (MDA-N) [µM]	TGI (SNB-19 CNS) [µM]	TGI (HS 578T breast) [µM]	TGI (HOP-92 NSCLC) [µM]	TGI (A498 renal) [µM]	TGI (BT-549 breast) [µM]	TGI (SNB-75 CNS) [µM]	TGI (RXF 393 renal) [µM]	TGI (HOP-62 NSCLC) [µM]	TGI (DU-145 prostate) [µM]	GI50 (MDA-MB-231 breast) [µM]	GI50 (SNB-19 CNS) [µM]	GI50 (HS 578T breast) [µM]	GI50 (HOP-92 NSCLC) [µM]	GI50 (BT-549 breast) [µM]	GI50 (SNB-75 CNS) [µM]	GI50 (HOP-62 NSCLC) [µM]	GI50 (DU-145 prostate) [µM]
Cc1ccc(-c2cn3c(nc4ccccc43)c(/C=C/c3ccco3)n2)cc1	> 100	> 100	> 100	84.2	> 100	> 100	> 100	> 100	> 100	> 100	> 100								
CN(CCc1ccccn1)c1ccc2c(c1)C(=O)c1ccccc1-2	> 100	> 100	> 100	> 100	> 100	> 100	> 100	> 100	> 100	> 100	> 100								
O=C1c2c(Br)sc(Br)c2[C@@H](O)[C@H]1O	31.4	31.8	38.3	63.5	35.3	> 100	35.6	31.6	30	30.6	30.7								
COc1ccc(N2C(=O)C(=O)C3(CCCCC3)C2=O)c2ccccc12	> 10	> 10	> 10	> 10		> 10		> 10	> 10	> 10	> 10								
CCCCCCCCCCCCCCCc1nc(=S)[nH][nH]1			> 100			> 100		> 100	> 100	> 100									
COc1ccc(CCn2cncn2)cc1			> 100		> 100			> 100		> 100									
COc1ccc(C2C3CCc4ccccc4C3=NN2S(=O)(=O)c2cccc(C(=O)O)c2OC)cc1 (configuration not stated)	> 100	7.25	> 100		> 100		> 100		62	> 100	> 100								
CN1CCC(C(O)(c2ccccc2)c2ccc(Br)cc2)CC1 (configuration not stated)	48.8	28.2	> 100	> 100	70.4		> 100	91.5	64.4	83.8	> 100								
N#C/C(=C(/O)CCl)c1nc2ccccc2o1	9.41	15.8	> 100	> 100	14.5	4.4	5.01	23.4	3.77	41.9	> 100								
COC(=O)c1c(O)ccc2c1c1cc3ccccc3c(O)c1n2CCc1ccc(OC)c(OC)c1	> 100	> 100	> 100	> 100	> 100	> 100	> 100		> 100	> 100	> 100								
O=P(NCCCO)(OCc1ccccc1)N(CCCl)CCCl (configuration not stated)			> 100		> 100	> 100		> 100	> 100										
C/C(C=O)=C/[C@@]1(C)O[C@@H](C)[C@@](C)(O)[C@@H]1O	> 100	> 100	> 100	> 100	> 100	> 100			> 100	> 100	> 100								
CC(C)CC(N)C(=O)NC(C(=O)NC(CCCNC(=N)N)C(=O)NC(CS)C(=O)NC1CSCC(C(=O)NC(Cc2ccccc2)C(=O)NC(C(=O)NC(CCCNC(=N)N)C(=O)O)C(C)C)NC(=O)C2CCCN2C(=O)C(CCCCN)NC(=O)C2CCCN2C(=O)C2CCCN2C(=O)C(Cc2ccc(O)cc2)NC(=O)C(CO)NC(=O)C(CCCCN)NC(=O)C(C(C)O)NC(=O)C(Cc2c[nH]c3ccccc23)NC1=O)C(C)C (configuration not stated)	> 25	> 25	> 25	> 25	> 25	> 25	> 25			> 25	> 25								
CCOc1nc2c(N3CCCC3)nc(N3CCNCC3)nc2nc1NCc1ccccc1	2.84	2.31	3.45	3.53	2.5		3.51	2.46	2.29	2.33	6.84								
CCCCOc1ccc(CC(NC(=O)OC(C)(C)C)C(=O)NC(C)C(=O)NC(Cc2ccccc2)C(=O)NCC(N)=O)cc1 (configuration not stated) (Boc-Y(nBu)AFG-NH2; configuration not given here)	> 100	> 100	> 100	> 100	> 100	> 100	> 100	> 100	> 100	> 100	> 100								
O=C(Cc1nc2ccccc2[nH]c1=O)c1c[nH]c2ccccc12	54.2	> 100	> 100	> 100	> 100	51.9	29.6	> 100	46.1	68.2	> 100								
COc1ccc2nc3cc(Cl)ccc3c(NCCCN3CCN(CCCNc4ccc5nnn6c7ccccc7c(=O)c4c56)CC3)c2c1	> 18.2	> 25	> 25	> 25	> 25	> 25	> 14.8	> 25	6.25	> 25	> 25								
O=C(Nc1ccccc1)Oc1ccc(C(=S)Nc2ccc(Br)cc2)cc1		47.2		> 100		54.5	36.6			82.1	81.8								
COc1ccccc1-c1c(C#N)c(N)[nH]c(=S)c1C#N	> 100	67.1	> 100	> 100	> 100	> 100	> 100		> 100	> 100	> 100								
Cc1c(-c2ccccc2)[nH]c2cn[nH]c(=O)c12	> 100	> 100	> 100	> 100	> 100	> 100	> 100			> 100	> 100								
CC1(C)OC[C@@H]([C@@]2(COC(c3ccccc3)(c3ccccc3)c3ccccc3)CC=CC(=O)O2)O1	> 100		> 100	> 100	92.1	71.4	74.4	59.3	69.5	> 100	> 100								
O=C(O)c1cc2ccccc2c(N=Nc2ccc(S(=O)(=O)Nc3ncccn3)cc2)c1O	> 100		> 100	> 100	> 100		> 100	> 100	> 100	> 100									
COc1cc(C2S/C(=C/c3ccccc3)C(=O)N2c2cccc(NC(C)=O)c2)cc(OC)c1OC (configuration not stated)	50.7	> 100	> 100	60.7	85.7	93.7	> 100	28	> 100	> 100									
Cc1cc(-c2nc3c(F)cccc3s2)ccc1N	> 100	> 100		> 100	> 100	> 100	> 100	> 100	> 100	> 100	> 100								
C=C1C(O)C2(O)OCC34C(CC5C(C)=CC(=O)C(O)C5(C)C23)OC(=O)C(OC(=O)C/C=C/CCCCCCCC)C14 (configuration not stated)			0.0335		0.0229	0.0324		0.0667	0.0211	0.041									
CN(C)c1ccc(-c2ccc(-c3ccc(C(=N)N)cn3)o2)cc1	3.77		3.64	4.07	2.87		3.5	3		3.32	3.18	1.8	1.87	1.9	1.27	1.8	1.59	1.74	1.72
O=[N+]([O-])c1ccc(N=Nc2c(O)[nH]c3ccccc23)c([N+](=O)[O-])c1	29.9	> 100	51	> 100	12.5	79.4	34.1	72.3	31.5	24.2	30.1								

Reference: PubChem BioAssay (NCI)
